From patent publication US12168781B2, “Production method for T cells or NK cells, medium for culturing T cells or NK cells, method for culturing T cells or NK cells, method for maintaining undifferentiated state of undifferentiated T cells, and growth-accelerating agent for T cells or NK cells” (KIRIN HOLDINGS KABUSHIKI KAISHA, priority 2018, dated 2024)

Tests used:
Format in all cases: cell-based, human
T-iPS-T cells [1] = assay: Feeder-free culture of T-iPS-T cells, FACS count of PI-negative cells and CD45RA(+)CCR7(+) cells; details: 6 days; for Number of CD45RA+CCR7+ cells: DMSO 3891 ± 3170; for Cell number: DMSO 16096 ± 10785
Protocol: After washing, the cells were resuspended in the staining solution containing PI. Half the amount was analyzed using a BD LSR Fortessa cytometer (BD Bioscience) equipped with HTS, and all cells were recorded.
The concentration dependence of the bisbenzylisoquinoline alkaloid represented by the formula (X-1) or the formula (X-2) in feeder-free proliferation of T-iPS-T cells was examined. T-iPS-T cells were cultured using alpha-MEM medium supplemented with 15% FBS, 1% PSG, PAA (50 μg/mL), ITS-G, IL-7 (5 ng/mL), IL-12 (50 ng/mL), IL-15 (5 ng/mL), IL-18 (50 ng/mL), IL-21 (20 ng/mL), and z-VAD-fmk (10 μM).
The effect on culturing of T-iPS-T cells was evaluated by comparing a known compound that contributes to the proliferation of memory T cells with berbamine. […] DMSO (0.1%) that is a solvent for the compound was used as a control.
The number of events of PI-negative cells and the number of events of CD45RA(+)CCR7(+) cells in the PI-negative cells, which were analyzed by FlowJo 9, were used as data. Note that in a statistical analysis, a Student's t-test was used (*: p<0.05).
The effect of the combined use of berbamine with a MAPK cascade inhibitor on the proliferation of memory T cells was examined. […] The final concentration of each compound was set to 1 μM. DMSO (0.1%) that is a solvent for the compound was used as a control.
The number of events (#Cells) of CD45RA(+)CCR7(+) cells in the PI-negative cell population analyzed by FlowJo 9 was plotted and graphed. Note that in a statistical analysis, a Student's t-test was used (*: p<0.05, **P<0.01, ***P<0.001, ****P<0.0001).

naive T cells = assay: Proliferation of sorted naive T cells, trypan blue count; details: 1 μM, naive T cells, 6, 9, 12 and 14 days, FIG. 18C
From the text: NPL 4 reports that hierarchy exists in T cells (FIG. 18A). In this Example, a fraction in which berbamine acts in T cells was verified. As a method therefor, PBMCs (CTL, Inc.) derived from a healthy subject was washed with a staining solution (PBS containing 2% FBS), and then stained with CCR7-APC (BioLegend, 353214), CD45RA-BV510 (BioLegend, 304142), CD45RO-APC-Cy7 (BioLegend, 307228), CD95-PC-Cy7 (BioLegend, 305622), CD8β-PE (Beckman, IM2217U), and CD4-BV421 (BioLegend, 317434).
After washing, the cells were resuspended in the staining solution containing PI, and by using BD AriaII Cell Sorter (BD Bioscience), in the CD8β(+) cells, CCR7(+)CD45RA(+)CD95(−)CD45RO(−) was sorted as naive T cells, CCR7(+)CD45RA(+)CD95(+)CD45RO(+) was sorted as stem cell memory T cells, CCR7(+)CD45RA(−)CD45RO(+) was sorted as central memory T cells, and CCR7(−) CD45RA(−)CD45RO(+) was sorted as effector memory T cells.
The respective cells (about 3,000 cells/well) were seeded, and berbamine (BBM) at 1 μM or MilliQ water that is a solvent for the compound as a control was added thereto, and the cells were stimulated with CD3/CD28 Dynabeads (about 9,000 beads/well). The cells were cultured using the same culture medium as in Example 6.
After 6, 9, 12, and 14 days of culturing, the number of viable cells was counted by a trypan blue method. In a statistical analysis, a Student's t-test was used (*: p<0.05).

T-iPS-T cells [2] = assay: Long-term culturing of T-iPS-T cells obtained by differentiation induction using a feeder, trypan blue count; details: 1 μM, FIG. 15(B)
Protocol: Further, evaluation of T-iPS-T cells obtained by differentiation induction using a feeder was also performed. The T-iPS-T cells (1,500 cells/well) obtained by differentiation induction in Example 1 were seeded, and stimulated with CD3/CD28 Dynabeads in the same manner as in Example 4, and berbamine (BBM) at 1 μM or MilliQ water that is a solvent for the compound as a control was added thereto, and the cells were cultured in the same culture medium as in Example 6. The cells were collected on day 14, day 28, and day 42, and the number of viable cells was counted by a trypan blue method, and the cells were restimulated and cultured. The cells were collected on day 56, and the number of viable cells was counted.

NK cells = assay: Proliferation of NK cells purified from PBMCs, trypan blue count; details: 1 μM, 14 days, NK cells of 3 donors, FIG. 20(C)
From the text: The effect of berbamine on NK cells was examined. As a method therefor, NK cells were purified from PBMCs (CTL, Inc.) derived from 3 healthy donor subjects using NK Cell Isolation Kit, human (Miltenyi, 130-092-657).
The NK cells before and after purification were washed with a staining solution (PBS containing 2% FBS) and then stained with CD56-FITC (BioLegend, 362546) and CD3-APC-Cy7 (BioLegend, 300318).
After washing, the cells were resuspended in the staining solution containing propidium iodide and measured using a BD FACSCanto II Flow Cytometer (BD Bioscience). The ratios of CD3(−) and CD56(+) cells in the PI-negative cell population analyzed by FlowJo 10 were confirmed.
As shown in FIG. 20(B), the ratios of CD3(−) and CD56(+) cells showing NK cells were 90% or more, which were sufficient. The purified NK cells (37,000 cells/well) were seeded, and cultured using MEM Alpha medium (Gibco, 12571-063) supplemented with 15% FBS (Biological Industries, 04-001-1A), L-Ascorbic Acid 2-Phosphate Sesquimagnesium Salt Hydrate (L-asc-2P, 50 μg/mL, nacalai tesque, 13570-66), ITS-G, IL-7 (10 ng/mL), and IL-15 (5 ng/mL).
To the culture medium, berbamine (BBM) at 1 μM or MilliQ water that is a solvent for the compound as a control was added, and after culturing for 14 days, the number of viable cells was counted by a trypan blue method.

In the case of `COc1cc2c3cc1Oc1c(OC)c(OC)cc4c1[C@@H](Cc1ccc(O)c(c1)Oc1ccc(cc1)C[C@@H]3N(C)CC2)N(C)CC4` [berbamine], the “Number of CD45RA+CCR7+ cells” value (T-iPS-T cells [1]; 1 nM) is reported as 5761 ± 4045, the Cell number (T-iPS-T cells [1]; 1 nM) is reported as 18397 ± 10723 and the “Number of CD45RA+CCR7+ cells” value (T-iPS-T cells [1]; 3 nM) is reported as 5667 ± 4255. For the same molecule, the Cell number (T-iPS-T cells [1]; 3 nM) was 19540 ± 11587, the “Number of CD45RA+CCR7+ cells” value (T-iPS-T cells [1]; 10 nM) was 6186 ± 3617 and the Cell number (T-iPS-T cells [1]; 10 nM) was 24672 ± 10675 **. The “Number of CD45RA+CCR7+ cells” value (T-iPS-T cells [1]; 30 nM) was 7186 ± 4180 *, the Cell number (T-iPS-T cells [1]; 30 nM) was 30885 ± 12249 ** and the “Number of CD45RA+CCR7+ cells” value (T-iPS-T cells [1]; 100 nM) was 10224 ± 3801 **. For the same molecule, the Cell number (T-iPS-T cells [1]; 100 nM) was 48026 ± 6597 **, the “Number of CD45RA+CCR7+ cells” value (T-iPS-T cells [1]; 300 nM) was 12034 ± 6515 * and the Cell number (T-iPS-T cells [1]; 300 nM) was 54888 ± 5691 **. For the same molecule, the “number of CD45RA(+)CCR7(+) cells, rank among the 266 compounds” value (T-iPS-T cells [1]; 1 μM, FIG. 7) was “highest number of CD45RA(+)CCR7(+) cells”, the “proliferation of T-iPS-T cells (PI-negative cells and CD45RA(+)CCR7(+) cells) vs DMSO” value (T-iPS-T cells [1]; 1 μM, FIG. 12) was “significant proliferation effect” and the “Number of CD45RA+CCR7+ cells” value (T-iPS-T cells [1]; 1 μM) was 12957 ± 9483. For the same molecule, the Cell number (T-iPS-T cells [1]; 1 μM) was 43432 ± 23926, the “Number of CD45RA+CCR7+ cells” value (T-iPS-T cells [1]; 3 μM) was 13552 ± 10355 and the Cell number (T-iPS-T cells [1]; 3 μM) was 43656 ± 29882. The “Number of CD45RA+CCR7+ cells” value (T-iPS-T cells [1]; 10 μM) was 5650 ± 8552, the Cell number (T-iPS-T cells [1]; 10 μM) was 20559 ± 34130 and the “number of CD45RA(+)CCR7(+) cells compared with DMSO” value (T-iPS-T cells [1]; each compound 1 μM, FIG. 13) was “significant cell proliferation”. The “number of viable cells compared with MilliQ water” value (naive T cells) was “significant enhancement of cell proliferation”, the “period for which the cells could be cultured” value (T-iPS-T cells [2]; restimulated on day 14, 28, 42, MilliQ water control could not be cultured after day 28) was 56 days and the “proliferation of the cells in long-term culturing” value (T-iPS-T cells [2]; vs MilliQ water) was “enhancement of the proliferation of the cells”. The “number of NK cells compared with MilliQ water” value (NK cells) was “increase in the number of NK cells”.
